Data reported in patent US20230295157A1, “3-(1H-IMIDAZOL-2-YL)-2,3,8,8A-TETRAHYDROINDOLIZIN-5(1H)-ONE DERIVATIVES USEFUL AS FACTOR XIA INHIBITORS” (JANSSEN PHARMACEUTICA NV, priority 2020, published 2023).
Read-outs that look alike come from different tables or passages of the source.

How the values were obtained:
Factor XIa = Factor XIa (Homo sapiens (Human), UniProt P03951); test: Factor XIa inhibition assay (FLINT) utilizing a fluorophore-quencher pair peptide substrate; type: biochemical; settings: 30 min preincubation, kinetic reads over 30 min, read-out: FXIa Kin Inh IC50
Outline: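 FXIa ([…]) preincubated 30 min with compound (11-point 3-fold dilution, top 100 nM, 2% DMSO), then 15 μM quenched FXI Arg146-based peptide added; Tris pH 7.5, CaCl2, BSA, CHAPS. Fluorescence 485/520 nm read kinetically every 5 min over 30 min at RT; IC50 by 4-parameter fit.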

human plasma kallikrein = human plasma kallikrein (Homo sapiens (Human), UniProt P03952); test: Kallikrein inhibition assay (FLINT) utilizing a quenched AMC peptide substrate; type: biochemical; settings: 30 min preincubation, read-out: Kallikrein Kin Inh IC50
Outline: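 Enzyme (2 nM final) pre-incubated 30 min at room temperature with compound (11-point, 3-fold, top 1 μM, 2% DMSO), then 50 μM Z-Gly-Pro-Arg-AMC added in Tris pH 7.5 buffer. Kinetic fluorescence 340/440 nm every 5 min over 30 min; IC50 from 4-parameter logistic fit.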

[1] = 5Fam-[…]-K5Tamra substrate 15 μM
[2] = kinetic reads over 30 min, Z-Gly-Pro-Arg-AMC substrate 50 μM
[3] = 5Fam-KLTRAETV-K5Tamra substrate 15 μM

Chain of human plasma kallikrein (P03952 391-638): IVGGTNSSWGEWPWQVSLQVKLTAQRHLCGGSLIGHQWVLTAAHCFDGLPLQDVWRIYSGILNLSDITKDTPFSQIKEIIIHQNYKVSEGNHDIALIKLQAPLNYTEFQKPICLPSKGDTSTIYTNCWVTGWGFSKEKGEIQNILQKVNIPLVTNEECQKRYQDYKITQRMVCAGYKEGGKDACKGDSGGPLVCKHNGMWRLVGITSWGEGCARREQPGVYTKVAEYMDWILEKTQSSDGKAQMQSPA
Chain of human plasma kallikrein (P03952 20-390 partner): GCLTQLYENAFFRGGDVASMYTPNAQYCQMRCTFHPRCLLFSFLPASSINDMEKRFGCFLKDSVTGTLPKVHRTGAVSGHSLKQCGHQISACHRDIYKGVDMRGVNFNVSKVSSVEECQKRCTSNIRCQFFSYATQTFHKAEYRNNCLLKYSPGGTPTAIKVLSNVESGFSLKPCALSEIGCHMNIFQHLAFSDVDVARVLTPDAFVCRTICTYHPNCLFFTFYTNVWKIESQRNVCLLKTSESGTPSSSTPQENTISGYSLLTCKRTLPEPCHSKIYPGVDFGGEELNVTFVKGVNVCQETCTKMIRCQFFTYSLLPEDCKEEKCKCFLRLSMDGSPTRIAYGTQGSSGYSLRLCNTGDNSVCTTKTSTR
Chain of Factor XIa (P03951 388-625): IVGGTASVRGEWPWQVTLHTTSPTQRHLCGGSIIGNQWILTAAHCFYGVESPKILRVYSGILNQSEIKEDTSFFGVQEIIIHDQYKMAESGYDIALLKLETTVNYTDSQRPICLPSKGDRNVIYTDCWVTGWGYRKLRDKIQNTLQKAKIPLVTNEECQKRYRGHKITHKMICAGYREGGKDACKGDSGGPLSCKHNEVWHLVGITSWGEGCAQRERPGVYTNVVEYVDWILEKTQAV
Chain of Factor XIa (P03951 19-387 partner): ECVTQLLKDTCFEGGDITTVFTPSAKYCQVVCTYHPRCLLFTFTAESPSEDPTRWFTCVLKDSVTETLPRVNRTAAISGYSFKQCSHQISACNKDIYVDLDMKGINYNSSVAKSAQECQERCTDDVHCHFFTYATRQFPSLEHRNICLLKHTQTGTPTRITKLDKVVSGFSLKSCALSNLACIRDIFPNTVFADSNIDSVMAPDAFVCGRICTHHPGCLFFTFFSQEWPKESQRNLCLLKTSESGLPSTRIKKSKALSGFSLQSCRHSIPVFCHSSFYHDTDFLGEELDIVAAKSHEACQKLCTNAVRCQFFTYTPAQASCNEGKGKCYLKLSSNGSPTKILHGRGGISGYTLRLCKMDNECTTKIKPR

Structure (SMILES) | IC50 (Factor XIa; [1]) | IC50 (human plasma kallikrein; [2]) | IC50 (Factor XIa; [3]) | IC50 (human plasma kallikrein; μM, kinetic reads)
[2H]C([2H])(O)c1nccc(-c2cnc([C@@H]3CCC4CC(c5c(-n6cnnn6)ccc(Cl)c5F)=CC(=O)N43)[nH]2)c1Cl (stereo partly drawn) [Example 189, (3S)-3-(5-(3-chloro-2-(hydroxymethyl-d2)pyridin-4-yl)-1H-imidazol-2-yl)-7-(3-chloro-2-fluoro-6-(1H-tetrazol-1-yl)phenyl)-2,3,8,8a-tetrahydroindolizin-5(1H)-one] | 1.8 nM | 0.0167 µM |  | 
O=C1C=C(c2c(-n3cc(C(F)(F)F)nn3)ccc(Cl)c2F)C[C@H]2CC[C@@H](c3ncc(-c4ccnc(CO)c4F)[nH]3)N12 [Example 67, (3S,8aR)-7-(3-chloro-2-fluoro-6-(4-(trifluoromethyl)-1H-1,2,3-triazol-1-yl)phenyl)-3-(5-(3-fluoro-2-(hydroxymethyl)pyridin-4-yl)-1H-imidazol-2-yl)-2,3,8,8a-tetrahydroindolizin-5(1H)-one] |  | 0.0857 µM | 10.7 nM | 
O=C1OCCN1c1nccc(-c2cnc([C@@H]3CC[C@@H]4CC(c5c(-n6cnnn6)ccc(Cl)c5F)=CC(=O)N43)[nH]2)c1F [Example 114, 3-[4-[2-[(3S,8aR)-7-[3-chloro-2-fluoro-6-(tetrazol-1-yl)phenyl]-5-oxo-2,3,8,8a-tetrahydro-1H-indolizin-3-yl]-1H-imidazol-5-yl]-3-fluoro-2-pyridyl]oxazolidin-2-one] |  | 0.0559 µM | 9.4 nM | 
Nc1ccc(-c2cnc([C@H]3CC[C@H]4CC(c5c(-n6cnnn6)ccc(Cl)c5F)=CC(=O)N43)[nH]2)c(F)n1 [Example 357, (3R,8aS)-3-(5-(6-Amino-2-fluoropyridin-3-yl)-1H-imidazol-2-yl)-7-(3-chloro-2-fluoro-6-(1H-tetrazol-1-yl)phenyl)-2,3,8,8a-tetrahydroindolizin-5(1H)-one] |  |  | 64.1 nM | 2.3 µM
O=C1C=C(c2cc(Cl)ccc2-n2cc(C(F)(F)F)nn2)C[C@H]2CC[C@@H](c3ncc(-c4ccnc(CO)c4F)[nH]3)N12 (relative stereo) [Example 64, (3S,8aR*)-7-(5-chloro-2-(4-(trifluoromethyl)-1H-1,2,3-triazol-1-yl)phenyl)-3-(5-(3-fluoro-2-(hydroxymethyl)pyridin-4-yl)-1H-imidazol-2-yl)-2 3,8,8a-tetrahydroindolizin-1H-one] | 11.5 nM | 0.156 µM |  | 
O=C1C=C(c2c(-n3cnnn3)ccc(Cl)c2F)C[C@H]2CC[C@H](c3ncc(-c4ccnc(C5(O)CC5)c4F)[nH]3)N12 (single isomer, unassigned) [Example 162, (3*R,8aR)-7-(3-chloro-2-fluoro-6-(1H-tetrazol-1-yl)phenyl)-3-(5-(3-fluoro-2-(1-hydroxycyclopropyl)pyridin-4-yl)-1H-imidazol-2-yl)-2,3,8,8a-tetrahydroindolizin-5(1H)-one] |  | 0.0306 µM | 4.2 nM | 
NC(=O)c1sc(-c2c[nH]c([C@@H]3CC[C@@H]4CC(c5c(-n6cnnn6)ccc(Cl)c5F)=CC(=O)N43)n2)cc1F [Example 216, 5-(2-((3S,8aR)-7-(3-Chloro-2-fluoro-6-(1H-tetrazol-1-yl)phenyl)-5-oxo-1,2,3,5,8,8a-hexahydroindolizin-3-yl)-1H-imidazol-4-yl)-3-fluorothiophene-2-carboxamide] |  | 0.0274 µM | 19.6 nM | 
O=C(O)c1ccc(-c2cnc([C@@H]3CCC4CC(c5c(-n6cnnn6)ccc(Cl)c5F)=CC(=O)N43)[nH]2)cc1F (stereo partly drawn) [Example 342, 4-[2-[(3S)-7-[3-Chloro-2-fluoro-6-(tetrazol-1-yl)phenyl]-5-oxo-2,3,8,8a-tetrahydro-1H-indolizin-3-yl]-1H-imidazol-4-yl]-2-fluoro-benzoic acid] |  | 0.405 µM | 22.6 nM | 
O=C1C=C(c2c(-n3cnnn3)ccc(Cl)c2F)CC2CC[C@@H](c3nc(-c4ncc[nH]4)c[nH]3)N12 (stereo partly drawn) [Example 333, (3S)-3-(1H,1′H-[2,4′-Biimidazol]-2′-yl)-7-(3-chloro-2-fluoro-6-(1H-tetrazol-1-yl)phenyl)-2,3,8,8a-tetrahydroindolizin-5(1H)-one] |  |  | 282 nM | 1.1 µM
Nc1ccc(-c2cnc([C@@H]3CC[C@@H]4CC(c5cc(Cl)ccc5-n5cnnn5)=CC(=O)N43)[nH]2)c(F)n1 (single isomer, unassigned) [Example 120, (3*S,8aR)-3-(5-(6-amino-2-fluoropyridin-3-yl-5-d)-1H-imidazol-2-yl)-7-(5-chloro-2-(1H-tetrazol-1-yl)phenyl-3-d)-2,3,8,8a-tetrahydroindolizin-5(1H)-one] |  | 0.0677 µM | 4.5 nM | 
CCOC(=O)Nc1cnccc1-c1c[nH]c([C@@H]2CC[C@H]3CC(c4c(-n5cnnn5)ccc(Cl)c4F)=CC(=O)N32)n1 [Example 263, Ethyl N-[4-[2-[(3S,8aS)-7-[3-chloro-2-fluoro-6-(tetrazol-1-yl)phenyl]-5-oxo-2,3,8,8a-tetrahydro-1H-indolizin-3-yl]-1H-imidazol-4-yl]-3-pyridyl]carbamate] |  | 0.0337 µM | 2.3 nM | 
CC(C)Oc1ccccc1-c1cnc([C@@H]2CCC3CC(c4c(-n5cnnn5)ccc(Cl)c4F)=CC(=O)N32)[nH]1 (stereo partly drawn) [Example 294] |  | 0.0462 µM | 77 nM | 
O=C1C=C(c2c(C(F)F)ccc(Cl)c2F)C[C@H]2CC[C@@H](c3ncc(-c4ccnc(CO)c4F)[nH]3)N12 [Example 26, (3S,8aR)-7-(3-Chloro-6-(difluoromethyl)-2-fluorophenyl)-3-(5-(3-fluoro-2-(hydroxymethyl)pyridin-4-yl)-1H-imidazol-2-yl)-2,3,8,8a-tetrahydroindolizin-5(1H)-one] | > 100 nM | 0.27 µM |  | 
Nc1cc(-c2cnc([C@@H]3CC[C@@H]4CC(c5c(-n6cnnn6)ccc(Cl)c5F)=CC(=O)N43)[nH]2)c(Cl)cn1 [Example 15, (3S,8aR)-3-[5-(2-Amino-5-chloro-4-pyridyl)-1H-imidazol-2-yl]-7-[3-chloro-2-fluoro-6-(tetrazol-1-yl)phenyl]-2,3,8,8a-tetrahydro-1H-indolizin-5-one] |  | 0.0275 µM | 3.7 nM | 

The next lines start with the values.

IC50 (Factor XIa; [1]) | IC50 (human plasma kallikrein; [2]) | IC50 (Factor XIa; [3]) | IC50 (human plasma kallikrein; μM, kinetic reads) | Structure (SMILES)
 | 0.0044 µM | 2.1 nM |  | Cc1nc2ccc(-c3cnc([C@@H]4CC[C@@H]5CC(c6c(-n7cnnn7)ccc(Cl)c6F)=CC(=O)N54)[nH]3)cc2[nH]1 [Example 30, (3S,8aR)-7-(3-chloro-2-fluoro-6-(1H-tetrazol-1-yl)phenyl)-3-(5-(2-methyl-1H-benzo[d]imidazol-6-yl)-1H-imidazol-2-yl)-2,3,8,8a-tetrahydroindolizin-5(1H)-one]
 | 0.0032 µM | 2.3 nM |  | COC(=O)Nc1cc(-c2cnc([C@@H]3CC[C@@H]4CC(c5c(-n6cnnn6)ccc(Cl)c5F)=CC(=O)N43)[nH]2)ccn1 [Example 99, Methyl (4-(2-((3S,8aR)-7-(3-chloro-2-fluoro-6-(1H-tetrazol-1-yl)phenyl)-5-oxo-1,2,3,5,8,8a-hexahydroindolizin-3-yl)-1H-imidazol-5-yl)pyridin-2-yl)carbamate]
 | 0.0078 µM | 0.5 nM |  | [2H]c1cc(-c2cnc([C@@H]3CC[C@@H]4CC(c5c(-n6cnnn6)ccc(Cl)c5F)=CC(=O)N43)[nH]2)c(F)nc1N [Example 147, (3S,8aR)-3-[5-(6-amino-5-deuterio-2-fluoro-3-pyridyl)-1H-imidazol-2-yl]-7-[3-chloro-2-fluoro-6-(tetrazol-1-yl)phenyl]-2,3,8,8a-tetrahydro-1H-indolizin-5-one]
 | 0.0112 µM | 1.3 nM |  | O=C1C=C(c2cc(Cl)ccc2-n2cnnn2)C[C@H]2CC[C@@H](c3nc(F)c(-c4ccnc(CO)c4F)[nH]3)N12 [Example 80, (3S,8aR)-7-[5-chloro-2-(tetrazol-1-yl)phenyl]-3-[4-fluoro-5-[3-fluoro-2-(hydroxymethyl)-4-pyridyl]-1H-imidazol-2-yl]-2,3,8,8a-tetrahydro-1H-indolizin-5-one]
0.6 nM | 0.0038 µM |  |  | O=C1C=C(c2c(-n3cnnn3)ccc(Cl)c2F)C[C@H]2CC[C@@H](c3ncc(-c4ccnc(OCC5(O)CC5)c4F)[nH]3)N12 [Example 183, (3S,8aR)-7-(3-chloro-2-fluoro-6-(1H-tetrazol-1-yl)phenyl)-3-(5-(3-fluoro-2-((1-hydroxycyclopropyl)methoxy)pyridin-4-yl)-1H-imidazol-2-yl)-2,3,8,8a-tetrahydroindolizin-5(1H)-one]
 | 0.0067 µM | 24.2 nM |  | NC(=O)c1cc(-c2cnc([C@@H]3CC[C@@H]4CC(c5c(-n6cnnn6)ccc(Cl)c5F)=CC(=O)N43)[nH]2)ccc1F [Example 233, 5-(2-((3S,8aR)-7-(3-chloro-2-fluoro-6-(1H-tetrazol-1-yl)phenyl)-5-oxo-1,2,3,5,8,8a-hexahydroindolizin-3-yl)-1H-imidazol-5-yl)-2-fluorobenzamide]
0.8 nM | 0.0103 µM |  |  | COC(=O)Nc1ccc(-c2cnc([C@@H]3CC[C@H]4CC(c5c(-n6cnnn6)ccc(Cl)c5F)=CC(=O)N43)[nH]2)nc1 (relative stereo) [Example 322, Methyl (6-(2-((3S,8aS)-7-(3-Chloro-2-fluoro-6-(1H-tetrazol-1-yl)phenyl)-5-oxo-1,2,3,5,8,8a-hexahydroindolizin-3-yl)-1H-imidazol-5-yl)pyridin-3-yl)carbamate]
